Experimental data: patent publication US20230012368A1 (Hoffmann-La Roche Inc., priority 2018, published 2023)
Counter-ions that a name gives are not always drawn. Like-named read-outs stand apart in the source and are kept apart here.

Test system: Acinetobacter baumannii ATCC 17978
Test: Antimicrobial susceptibility testing: 90% growth inhibitory concentration (IC90) determination
Format: cell-based
Conditions: 90% growth inhibitory concentration, Acinetobacter baumannii ATCC17978, Iso-Sensitest broth, OD 600 nm over 16h, read-out: ATCC17978 IC90
Summary of the method: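 Growth of the Acinetobacter baumannii strain was followed by optical density at 600 nm every 20 minutes for 16h at 35±2° C. Inoculum was ~5×10^(5) CFU/ml in Iso-Sensitest medium, with twofold compound dilutions (e.g. 50 to 0.097 μM final). The 90% inhibitory concentration was derived in log-phase growth.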

[1] = Acinetobacter baumannii, ATCC17978, 16 h

Compound: CCc1cc(Nc2nccn3c(-c4ccc(Cl)cc4Cl)cnc23)ccc1C(=O)NCCNC(=O)[C@H](N)CCCNC(=N)N [Example 351, N-[2-[[(2R)-2-amino-5-carbamimidamidopentanoyl]amino]ethyl]-4-[[3-(2,4-dichlorophenyl)imidazo[1,2-a]pyrazin-8-yl]amino]-2-ethylbenzamide;formic acid]
- IC90 [1]: 1300 nM

Compound: CNC(=O)c1ccc(Nc2nccn3c(-c4ccc(OC)c(F)c4F)cnc23)cc1C [Example 538, 4-((3-(2,3-difluoro-4-methoxyphenyl)imidazo[1,2-a]pyrazin-8-yl)amino)-N,2-dimethylbenzamide]
- IC90 [1]: 27 nM

Compound: CCc1cc(Nc2nccn3c(-c4ccc(OC)c(F)c4F)cnc23)ccc1C(=O)NCCCNC(=O)NCCCN [Example 120]
- IC90 [1]: 140 nM

Compound: CCc1cc(Nc2nccn3c(-c4ccc(OCC#N)c(F)c4F)cnc23)ccc1C(=O)NCCNC(=O)[C@@H](N)CO [Example 135, N-[2-[[(2S)-2-amino-3-hydroxy-propanoyl]amino]ethyl]-4-[[3-[4-(cyanomethoxy)-2,3-difluoro-phenyl]imidazo[1,2-a]pyrazin-8-yl]amino]-2-ethyl-benzamide formate]
- IC90 [1]: 90 nM

Compound: CCc1cc(Nc2nccn3c(-c4ccc(OC)c(F)c4F)cnc23)ccc1C(=O)NCCCCCCN1CCCCC1 [Example 534, 4-((3-(2,3-difluoro-4-methoxyphenyl)imidazo[1,2-a]pyrazin-8-yl)amino)-2-ethyl-N-(6-(piperidin-1-yl)hexyl)benzamide]
- IC90 [1]: 41 nM

Compound: CC(=O)N1CCC(CCN(C)C(=O)c2ccc(Nc3nccn4c(-c5ccc(OC(F)F)cc5)cnc34)cc2C)CC1 [Example 204, N-[2-(1-acetylpiperidin-4-yl)ethyl]-4-[[3-[4-(difluoromethoxy)phenyl]im-idazo[1,2-a]pyrazin-8-yl]amino]-N,2-dimethylbenzamide]
- IC90 [1]: 530 nM

Compound: COc1ccc(-c2cnc3c(Nc4ccc(C(=O)NCC5CCCOC5)c(C)c4)nccn23)cc1F (centres unmarked) [Example 72, 4-((3-(3-fluoro-4-methoxyphenyl)imidazo [1,2-a]pyrazin-8-yl)amino)-2-methyl-N-((tetrahydro-2H-pyran-3-yl)methyl)benzamide]
- IC90 [1]: 1000 nM

Compound: CCc1cc(Nc2nccn3c(-c4ccc(Oc5ncccn5)c(F)c4F)cnc23)ccc1C(=O)NCCNC(=O)[C@@H](N)CCNC(=N)N [Example 438, N-[2-[[(2S)-2-amino-4-guanidino-butanoyl]amino]ethyl]-4-[[3-(2,3-difluoro-4-pyrimidin-2-yloxy-phenyl)imidazo[1,2-a]pyrazin-8-yl]amino]-2-ethyl-benzamide; formic acid]
- IC90: 550 nM

Compound: CCc1cc(Nc2nccn3c(-c4ccc(OC(F)F)c(F)c4F)cnc23)ccc1C(=O)NCC1(O)CCNC1 (centres unmarked) [Example 311, 4-[[3-[4-(difluoromethoxy)-2,3-difluorophenyl]imidazo[1,2-a]pyrazin-8-yl]amino]-2-ethyl-N-[(3-hydroxypyrrolidin-3-yl)methyl]benzamide;hydro-chloride]
- IC90 [1]: 800 nM

Compound: Cc1cc(Nc2nccn3c(-c4ccc(Cl)cc4)cnc23)ccc1C(=O)NCCC1CCNCC1 [Example 189, 4-[[3-(4-chlorophenyl)imidazo[1,2-a]pyrazin-8-yl]amino]-2-methyl-N-(2-piperidin-4-ylethyl)benzamide;hydrochlo-ride]
- IC90 [1]: 280 nM

Compound: C=Cc1cc(Nc2nccn3c(-c4ccc(OC(F)F)cc4)cnc23)ccc1C(=O)NCCN1CCNCC1 [Example 238, 4-[[3-[4-(difluoromethoxy)phenyl]im-idazo[1,2-a]pyrazin-8-yl]amino]-2-ethenyl-N-(2-piperazin-1-ylethyl)benzamide; hydrochlo-ride]
- IC90 [1]: 1800 nM

Compound: C=Cc1cc(Nc2nccn3c(-c4ccc(OC(F)F)cc4)cnc23)ccc1C(=O)N(C)CCN1CCNCC1 [Example 217, 4-[[3-[4-(difluoromethoxy)phenyl]im-idazo[1,2-a]pyrazin-8-yl]amino]-2-ethenyl-N-methyl-N-(2-piperazin-1-ylethyl)benzamide;hydrochlo-ride]
- IC90 [1]: 840 nM

Compound: CCc1cc(Nc2nccn3c(-c4ccc(OC)c(F)c4F)cnc23)ccc1C(=O)NCCNC(=O)CCCCNC(=N)N [Example 139, 4-[[3-(2,3-difluoro-4-methoxy-phenyl)imidazo[1,2-a]pyrazin-8-yl]amino]-2-ethyl-N-[2-(5-guanidino-pentanoylamino)ethyl]benzamide formate]
- IC90 [1]: 60 nM

Compound: CCc1cc(Nc2nccn3c(-c4ccc(OC)c(F)c4F)cnc23)ccc1C(=O)NCCCNC(=O)[C@@H](N)CCCNC(=N)N [Example 343, N-[3-[[(2S)-2-amino-5-carbamimidamidopentanoyl]amino]propyl]-4-[[3-(2,3-difluoro-4-methoxyphenyl)imidazo[1,2-a]pyrazin-8-yl]amino]-2-ethylbenzamide;2,2,2-trifluoroacetic acid]
- IC90: 750 nM

Compound: COc1ccc(-c2cnc3c(Nc4ccc(C(=O)NCCNC(=O)[C@@H]5C[C@@H](O)CN5)c(C)c4)nccn23)c(F)c1F [Example 363, (2S,4R)-N-[2-[[4-[[3-(2,3-difluoro-4-methoxyphenyl)imidazo[1,2-a]pyrazin-8-yl]amino]-2-methylbenzoyl]amino]ethyl]-4-hydroxypyrrolidine-2-carboxamide]
- IC90 [1]: 90 nM

Compound: CCc1cc(Nc2nccn3c(-c4ccc(OC)c(F)c4F)cnc23)ccc1C(=O)NCC1CN(C)C1 [Example 297, 4-[[3-(2,3-difluoro-4-methoxyphenyl)imidazo[1,2-a]pyrazin-8-yl]amino]-2-ethyl-N-[(1-methylazetidin-3-yl)methyl]benzamide]
- IC90 [1]: 150 nM

Compound: COc1ccc(-c2cnc3c(Nc4ccc(C(=O)N(C)CCCC5OCC(N)CO5)c(C)c4)nccn23)cc1F (centres unmarked) [Example 192, N-[3-(5-amino-1,3-dioxan-2-yl)propyl]-4-[[3-(3-fluoro-4-methoxyphenyl)imidazo[1,2-a]pyrazin-8-yl]amino]-N,2-dimethylbenzamide]
- IC90 [1]: 340 nM

Compound: C#CCOc1ccc(-c2cnc3c(Nc4ccc(C(=O)N[C@H](C)CN)c(CC)c4)nccn23)c(F)c1F [Example 460, N-[(1R)-2-amino-1-methyl-ethyl]-4-[[3-(2,3-difluoro-4-prop-2-ynoxy-phenyl)imidazo[1,2-a]pyrazin-8-yl]amino]-2-ethyl-benzamide]
- IC90 [1]: 480 nM

Compound: COc1ccc(-c2cnc3c(Nc4ccc(C(=O)NCCCN5CCNC(C(=O)O)C5)c(Cl)c4)nccn23)c(F)c1F (centres unmarked) [Example 314, 4-[3-[[2-chloro-4-[[3-(2,3-difluoro-4-methoxyphenyl)imidazo[1,2-a]pyrazin-8-yl]amino]benzoyl]amino]pro-pyl]piperazine-2-carboxylic acid;formic acid]
- IC90 [1]: 1300 nM

Compound: CCc1cc(Nc2nccn3c(-c4ccc(OC)c(F)c4F)cnc23)ccc1C(=O)NCc1cnc(N)s1 [Example 569, N-((2-aminothiazol-5-yl)methyl)-4-((3-(2,3-difluoro-4-methoxyphenyl)imidazo[1,2-a]pyrazin-8-yl)amino)-2-ethylbenzamide]
- IC90 [1]: 84 nM

Compound: CCc1cc(Nc2nccn3c(-c4ccc(OC)c(F)c4F)cnc23)ccc1C(=O)NCCCCN [Example 514, N-(4-aminobutyl)-4-((3-(2,3-difluoro-4-methoxyphenyl)imidazo[1,2-a]pyrazin-8-yl)amino)-2-ethylbenzamide hydrochloride]
- IC90: 48 nM

Compound: Cc1cc(Nc2nccn3c(-c4ccc(OC(F)F)cc4)cnc23)ccc1C(=O)NCCCCCCN [Example 21, N-(6-aminohexyl)-4-((3-(4-(difluoromethoxy)phenyl)imidazo[1,2-a]pyrazin-8-yl)amino)-2-methylbenzamide hydrochloride]
- IC90 [1]: 120 nM

Compound: COc1ccc(-c2cnc3c(Nc4ccc(C(=O)NCC5CCN(C)CC5)c(C)c4)nccn23)c(F)c1F [Example 62, 4-((3-(2,3-difluoro-4-methoxyphenyl)imidazo [1,2-a]pyrazin-8-yl)amino)-2-methyl-N-((1-methylpiperidin-4-yl)methyl)benzamide]
- IC90 [1]: 250 nM

Compound: 4-((3-(4- (difluoromethoxy) phenyl)imidazo[1,2- a]pyrazin-8- yl)amino)-N-methyl- 2- (trifluoromethyl) benzamide [Example 53]
- IC90: 240 nM

Compound: CCc1cc(Nc2nccn3c(-c4ccc(OC(F)F)c(F)c4F)cnc23)ccc1C(=O)NCCNC(=O)CN(C)C [Example 294, 4-[[3-[4-(difluoromethoxy)-2,3-difluorophenyl]imidazo[1,2-a]pyrazin-8-yl]amino]-N-[2-[[2-(dimethylamino)acetyl]amino]ethyl]-2-ethylbenzamide]
- IC90 [1]: 140 nM

Compound: CN(CCCn1c(=O)c(=O)[nH]n(C)c1=S)C(=O)c1ccc(Nc2nccn3c(-c4ccc(OCC#N)c(F)c4F)cnc23)cc1Cl [Example 396, 2-chloro-4-((3-(4-(cyanomethoxy)-2,3-difluorophenyl)imidazo[1,2-a]pyrazin-8-yl)amino)-N-methyl-N-(3-(2-methyl-5,6-dioxo-3-thioxo-1,2,4-triazinan-4-yl)propyl)benzamide]
- IC90 [1]: 570 nM

Compound: N#CCOc1ccc(-c2cnc3c(Nc4ccc(C(=O)NCCCCCCN)c(Cl)c4)nccn23)c(F)c1F [Example 497, N-(6-aminohexyl)-2-chloro-4-((3-(4-(cyanomethoxy)-2,3-difluorophenyl)imidazo[1,2-a]pyrazin-8-yl)amino)benzamide]
- IC90 [1]: 25 nM

Compound: COc1ccc(-c2cnc3c(Nc4ccc(C(=O)NCCCS(=O)(=O)N5CCNCC5)c(C)c4)nccn23)c(F)c1F [Example 68, 4-((3-(2,3-difluoro-4-methoxyphenyl)imidazo [1,2-a]pyrazin-8-yl)amino)-2-methyl-N-(3-(piperazin-1-ylsulfonyl)propyl) benzamide]
- IC90 [1]: 170 nM

Compound: COc1ccc(-c2cnc3c(Nc4ccc(C(=O)N[C@H](CO)Cc5cnc[nH]5)c(C)c4)nccn23)cc1F [Example 383, 4-[[3-(3-fluoro-4-methoxyphenyl)imidazo[1,2-a]pyrazin-8-yl]amino]-N-[(2S)-1-hydroxy-3-(1H-imidazol-5-yl)propan-2-yl]-2-methylbenzamide]
- IC90 [1]: 820 nM
